One block for each compound: values may come before it.
How the values were obtained:
[1] = Pharmacokinetic test in monkeys; format: in vivo, cynomolgus monkeys; details: for AUC(0-t) / clearance / Vd: male, cynomolgus monkey, plasma; for Vd: read-out: Vdss
Method: Experimental animals: Male cynomolgus monkeys, 3-5 kg, 3-6 years old, 4 monkeys/compound. purchased from Suzhou Xishan Biotechnology Inc.
Experimental method: On the day of the experiment, 8 monkeys were randomly grouped according to their body weights. The animals were fasted with water available for 14 to 18 h one day before the administration, and were fed 4 h after the administration.
Before and after the administration, 1.0 mL of blood samples were drawn from the limb veins and placed in an EDTAK2 centrifuge tube. Centrifugation was carried out at 5000 rpm at 4° C. for 10 min, and the plasma was collected. The blood collection time points for the intravenous group and intragastric administration group were: 0 min, 5 min, 15 min, 30 min, 1 h, 2 h, 4 h, 6 h, 8 h, 10 h, 12 h, 24 h, and 48 h. Before analysis and detection, all samples were stored at −80° C., and a quantitative analysis of samples was performed using LC-MS/MS.

CCR4 = molecular target: T1, CCR4 (Homo sapiens, UniProt P51679); test: Calcium flow detected by FLIPR; format: cell-based; details: CCR4/HEK293 cells, agonist CCL17, Fluo-4 calcium signal
T1 construct: expressed in transfected cells; host or cells: HEK293
T1 sequence (P51679 1-360): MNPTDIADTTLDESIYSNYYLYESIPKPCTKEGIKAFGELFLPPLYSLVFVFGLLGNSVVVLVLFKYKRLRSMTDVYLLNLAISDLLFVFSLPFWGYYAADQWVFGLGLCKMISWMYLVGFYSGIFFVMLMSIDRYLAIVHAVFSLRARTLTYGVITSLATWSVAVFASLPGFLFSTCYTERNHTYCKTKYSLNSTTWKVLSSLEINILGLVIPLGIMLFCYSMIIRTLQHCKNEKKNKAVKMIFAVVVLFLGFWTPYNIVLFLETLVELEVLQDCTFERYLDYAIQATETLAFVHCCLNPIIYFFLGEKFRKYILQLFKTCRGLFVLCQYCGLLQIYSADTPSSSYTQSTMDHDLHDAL
Method: CCR4/HEK293 cells were added to a 384-well cell culture plate (Greiner #781946) at a rate of 20 μL/well (20,000 cells/well) and incubated overnight in a 37° C., 5% CO2 incubator (Incubator, Thermo). On the second day, the 384-well cell culture plate was taken out of the incubator and the culture medium was removed; Then, 20 μL of detection buffer and 20 μL of 2X Fluo-4 Direct™ (Invitrogen, Cat #F10471) were added. Then, compounds were added at 10 μL/well (compounds were subjected to 4-fold serial dilution, and the highest detection concentration was 10 μM), and the cells were incubated in a 37° C., 5% CO2 incubator for 50 min, and then incubated at room temperature for 10 min. The 384-well culture plate was placed in FLIPR ([…]), 10 μL of 6X agonist CCL17 was added by using an automatic loader, and the fluorescence signal was read immediately. The mean and standard error (Mean±SEM) were statistically analyzed using Graphpad Prism software, and the IC50 value was calculated.
The experimental results are shown in Table 3, where A represents IC50<100 nm; B represents 100 nM≤IC50<500 nM, and C represents 500 nM≤IC50.

[2] = Pharmacokinetic test in rats; format: in vivo, SD rats; details: for AUC / clearance / Vd: male, SD, rat, plasma; for Vd: read-out: Vdss
Method: 1.1 Experimental animals: male SD rats, about 220 g, 6-8 weeks old, 6 rats/compound. Purchased from Chengdu Ddossy Experimental Animals Co., Ltd.
1.2 Experimental design: on the day of the experiment, 36 SD rats were randomly grouped according to their body weights. The animals were fasted with water available for 12 to 14 h one day before the administration and were fed 4 h after the administration.
(§1) Before and after the administration, 0.15 ml of blood was taken from the orbit of the animals under isoflurane anesthesia and placed in an EDTAK2 centrifuge tube. The blood was centrifuged at 5000 rpm and 4° C. for 10 min to collect plasma. The blood collection time points for the intravenous administration group and intragastric administration group were: 0, 5 min, 15 min, 30 min, 1 h, 2 h, 4 h, 6 h, 8 h and 24 h. Before analysis and detection, all samples were stored at −80° C., and a quantitative analysis of samples was performed using LC-MS/MS.

[3] = Pharmacokinetic test in mice; format: in vivo, C57 mice; details: for AUC(0-t) / clearance / Vd: male, C57, mouse, plasma; for Vd: read-out: Vdss
Method: 1.1 Experimental animals: Male C57 mice, 20-25 g, 6 mice/compound. Purchased from Chengdu Ddossy Experimental Animals Co., Ltd.
1.2 Experimental design: On the day of the experiment, 24 C57 mice were randomly grouped according to their body weight. The animals were fasted with water available for 12 to 14 h one day before the administration and were fed 4 h after the administration.
as §1, with “0.06 mL” for “0.15 ml”, “intravenous” for “intravenous administration”, “0 min,” for “0,”, “7” for “6 h, 8”

F ([3]; i.g. 10 mg/kg): 118 ± 4.5%
AUC(0-t) ([3]; iv, i.v. 2.5 mg/kg): 4490 ± 361 ng·h/mL
clearance ([3]; iv, i.v. 2.5 mg/kg): 9.26 ± 0.73 mL/min/kg
Vd ([3]; iv, i.v. 2.5 mg/kg): 1.94 ± 0.053 L/kg
AUC(0-t) ([3]; po, i.g. 10 mg/kg): 21200 ± 815 ng·h/mL
IC50 (CCR4): < 100 nM
F ([2]; i.g. 10 mg/kg): 108 ± 21%
AUC ([2]; iv, i.v. 2.5 mg/kg): 6020 ± 1390 ng·h/mL
clearance ([2]; iv, i.v. 2.5 mg/kg): 6.85 ± 1.2 mL/min/kg
Vd ([2]; iv, i.v. 2.5 mg/kg): 1.38 ± 0.25 L/kg
AUC ([2]; po, i.g. 10 mg/kg): 26100 ± 5150 ng·h/mL
Structure (SMILES): Cc1nc(N2CC(F)(C3CN(C4CC(C)(C(=O)O)C4)CCO3)C2)nc(N[C@H](C)c2ccc(Cl)cc2Cl)c1Cl (single isomer, unassigned) [Compound 64 isomer 3]

IC50 (CCR4): < 100 nM
F ([2]; i.g. 10 mg/kg): >98%
AUC ([2]; iv, i.v. 2.5 mg/kg): 4560 ± 638 ng·h/mL
clearance ([2]; iv, i.v. 2.5 mg/kg): 9.22 ± 1.2 mL/min/kg
Vd ([2]; iv, i.v. 2.5 mg/kg): 2.07 ± 0.28 L/kg
AUC ([2]; po, i.g. 10 mg/kg): 28400 ± 7070 ng·h/mL
Structure (SMILES): Cc1nc(N2CC3C(C2)C3C2CN(C3CC(C)(C(=O)O)C3)CCO2)nc(NC(C)c2ccc(Cl)cc2Cl)c1Cl (single isomer, unassigned) [Compound 78 isomer 3]

F ([1]; i.g. 5 mg/kg): 76.8 ± 27%
AUC(0-t) ([1]; iv, i.v. 1 mg/kg): 15800 ± 1740 ng·h/mL
clearance ([1]; iv, i.v. 1 mg/kg): 1.02 ± 0.14 mL/min/kg
Vd ([1]; iv, i.v. 1 mg/kg): 0.754 ± 0.15 L/kg
AUC(0-t) ([1]; po, i.g. 5 mg/kg): 60700 ± 21600 ng·h/mL
F ([3]; i.g. 10 mg/kg): 91.6 ± 12%
AUC(0-t) ([3]; iv, i.v. 2.5 mg/kg): 7250 ± 726 ng·h/mL
clearance ([3]; iv, i.v. 2.5 mg/kg): 5.69 ± 0.6 mL/min/kg
Vd ([3]; iv, i.v. 2.5 mg/kg): 1.77 ± 0.069 L/kg
AUC(0-t) ([3]; po, i.g. 10 mg/kg): 26600 ± 3520 ng·h/mL
IC50 (CCR4): < 100 nM
F ([2]; i.g. 10 mg/kg): >98%
AUC ([2]; iv, i.v. 2.5 mg/kg): 7320 ± 1280 ng·h/mL
clearance ([2]; iv, i.v. 2.5 mg/kg): 5.53 ± 1 mL/min/kg
Vd ([2]; iv, i.v. 2.5 mg/kg): 2.25 ± 0.27 L/kg
AUC ([2]; po, i.g. 10 mg/kg): 37000 ± 2820 ng·h/mL
Structure (SMILES): C[C@@H](Nc1cc(N2CC(C3CN(C4CC(C)(C(=O)O)C4)CCO3)C2)ccc1Cl)c1ccc(Cl)cc1Cl (single isomer, unassigned) [Compound 83 isomer 1]

IC50 (CCR4): < 100 nM
Structure (SMILES): C#Cc1ccc(C(C)Nc2cc(N3CC([C@H]4CCCN([C@H]5C[C@](C)(C(=O)O)C5)C4)C3)nc3ccnn23)c(Cl)c1 (some centres unmarked) [Compound 22]

IC50 (CCR4): < 100 nM
Structure (SMILES): Cc1nc(N[C@H](C)c2ccc(Cl)cc2Cl)cc(N2CC([C@H]3CCCN([C@H]4C[C@](C)(C(=O)O)C4)C3)C2)n1 [Compound 26]

IC50 (CCR4): < 100 nM
Structure (SMILES): C[C@@H](Nc1cc(N2CC([C@H]3CCCN(CCO)C3)C2)ncn1)c1ccc(Cl)cc1Cl [Compound 27]

IC50 (CCR4): < 100 nM
Structure (SMILES): Cc1nc(N2CC([C@@H]3CN(CCO)CCO3)C2)nc(N[C@H](C)c2ccc(Cl)cc2Cl)c1Cl [Compound 31]

Further lines, the compound ahead of its results:

Structure (SMILES): Cc1nc(N2CC(C3CN(C4CC(C)(C(=O)O)C4)CCO3)C2)nc(NC(C)c2ccc(Cl)cc2Cl)c1Cl (single isomer, unassigned) [Compound 9 isomer 3]
F ([1]; i.g. 5 mg/kg): 72.8 ± 57%
AUC(0-t) ([1]; iv, i.v. 1 mg/kg): 6930 ± 1440 ng·h/mL
clearance ([1]; iv, i.v. 1 mg/kg): 2.44 ± 0.51 mL/min/kg
Vd ([1]; iv, i.v. 1 mg/kg): 0.995 ± 0.088 L/kg
AUC(0-t) ([1]; po, i.g. 5 mg/kg): 25200 ± 19900 ng·h/mL
IC50 (CCR4): < 100 nM
F ([2]; i.g. 10 mg/kg): 98.7 ± 19%
AUC ([2]; iv, i.v. 2.5 mg/kg): 6280 ± 402 ng·h/mL
clearance ([2]; iv, i.v. 2.5 mg/kg): 6.61 ± 0.42 mL/min/kg
Vd ([2]; iv, i.v. 2.5 mg/kg): 1.49 ± 0.13 L/kg
AUC ([2]; po, i.g. 10 mg/kg): 24800 ± 4810 ng·h/mL

Structure (SMILES): Cc1nc(N2CCC(C3CN(CCC(=O)O)CCO3)CC2)nc(NC(C)c2ccc(Cl)cc2Cl)c1Cl (single isomer, unassigned) [Compound 76 isomer 2]
F ([3]; i.g. 10 mg/kg): 123 ± 14%
AUC(0-t) ([3]; iv, i.v. 2.5 mg/kg): 1790 ± 125 ng·h/mL
clearance ([3]; iv, i.v. 2.5 mg/kg): 23.1 ± 1.7 mL/min/kg
Vd ([3]; iv, i.v. 2.5 mg/kg): 1.44 ± 0.12 L/kg
AUC(0-t) ([3]; po, i.g. 10 mg/kg): 8840 ± 1010 ng·h/mL
IC50 (CCR4): < 100 nM

Structure (SMILES): C#Cc1ccc(C(C)Nc2cc(N3CC([C@H]4CCCN([C@H]5C[C@](C)(C(=O)O)C5)C4)C3)ncn2)c(Cl)c1 (some centres unmarked) [Compound 23]
IC50 (CCR4): < 100 nM

Structure (SMILES): C[C@@H](Nc1cc(N2CC([C@H]3CCCN(CCO)C3)C2)nc2ccnn12)c1ccc(Cl)cc1Cl [Compound 24]
IC50 (CCR4): < 100 nM

Structure (SMILES): C[C@@H](Nc1cc(N2CC([C@H]3CCCN([C@H]4C[C@](C)(C(=O)O)C4)C3)C2)n2nccc2n1)c1ccc(Cl)cc1Cl [Compound 25]
IC50 (CCR4): < 100 nM

Structure (SMILES): C[C@@H](Nc1nc(N2CC([C@H]3CCCN([C@H]4C[C@](C)(C(=O)O)C4)C3)C2)c2sccc2n1)c1ccc(Cl)cc1Cl [Compound 33]
IC50 (CCR4): < 100 nM

Structure (SMILES): C[C@@H](Nc1nc2c(c(N3CC([C@H]4CCCN([C@H]5C[C@](C)(C(=O)O)C5)C4)C3)n1)CCC2)c1ccc(Cl)cc1Cl [Compound 34]
IC50 (CCR4): 100 to 500 nM
